The text below walks through data of patent US6706764B2, “Use of creatine or creatine analogs for the treatment of diseases of the nervous system” (Avicena Group, Inc., priority 1994, dated 2004).

The conditions of series [1]: fed to mice, rats and chicks; cited from earlier work.
For series [2] the following is noted: mice, up to 1% of diet for 2 weeks or for over 4 weeks; cited from earlier work.
In series [3] the test system is creatine kinase. As to conditions: forward reaction, both in vitro and in vivo; cited from earlier work.
Series [4] relates to malonate induced striatal lesions. As to the kind of experiment: Malonate induced striatal lesions, model for Huntington's disease. In kind it is in vivo, rats. The procedure:
We initially examined whether oral administration of creatine or its analogue cyclocreatine could attenuate malonate lesions. Creatine was administered orally to rats in their feed at doses of 0.25-3.0% of the diet. Cyclocreatine was administered at 0.2-1.0%. Controls received unsupplemented otherwise identical diets. The compounds were administered for two weeks prior to the administration of malonate and then for a further week prior to sacrifice. Malonate was dissolved in distilled deionized water and the pH wad adjusted to 7.4 with 0.1 m HCI. Intrastriatal injections of 1.5 ul of malonate containing 3 μmol were made into the striatum at the level of the Bregma 2.4 mm lateral to the midline and 4.5 mm ventral to the dura. Animals were sacrificed at 7 days by decapitation, and the brains were quickly removed and placed in ice cold 0.9% saline solution. Brains were sectioned at 2 mm intervals. Slices were then placed posterior side down in 2% 2,3,5-triphenyltetrazolium chloride. Slices were stained in the dark at room temperature for 30 minutes and then removed and placed in 4% paraformaldehyde, pH 7.3. Lesions, noted by pale staining, were evaluated on the posterior surface of each section using a Bioquant 4 system by an experienced histologist blinded to experimental conditions. These measurements have been validated by comparing them to measurements obtained on adjacent Nissl stain sections.

For series [5] the following is noted: cited from earlier work.
For series [6], the system named is MPTP induced dopaminiergic toxicity. As to the kind of experiment: MPTP model for Parkinson's disease, striatal dopamine, DOPAC and HVA by HPLC. The series is classed as in vivo, male Swiss Webster mice. As to conditions: for neuroprotection against dopamine depletions: dose response. The procedure: The effect of two representative creatine compounds, creatine and cyclocreatine, were evaluated using this model. Creatine and cyclocreatine were administered in the initial pilot experiment as 1% formulation in the feed of animals, and was administered for three weeks before MPTP treatment. MPTP was administered intraperitoneally at a dose of 15 mg/kg every 2 hours for five injections. The animals then remained on either creatine or cyclocreaine supplemented diets for 1 week before sacrifice. The mice examined were male Swiss Webster mice weighing 30-35 grams obtained from Taconic Farms. Control groups recieved either normal saline or MPTP hydrochloride alone. MPTP was administered in 0.1 ml of water. The MPTP was obtained from Research Biochemicals. Eight to twelve animals were examined in each group. Following sacrifice the two striata were rapidly dissected and placed in chilled 0.1 M perchloric acid. Tissue was subsequently sonicated, and aliquots were taken for protein quantification using a fluorometer assay. Dopamine, 3,4-dihydroxyphenylacetic acid (DOPAC), and homovanillic acid (HVA) were quantified by HPLC with 16 electrode electrochemical detection. Concentrations of dopamine and metabolites were expressed as nmol/mg protein. The statistical significance of differences was determined by one-way ANOVA followed by Fisher PLSDpost-hoc test to compare group means.
A dose response study was conducted where the creatine dose was 0.25%-3.0% of the diet and cyclocreatine 0.25-1.0% of the diet.

For the next series, the system named is viral infections. As to conditions: 1% dietary; cited from earlier work.
For series [7] the following is noted: cited from earlier work. This is another data set of the same source.
For series [8], the system named is malonate striatal excitotoxic lesions. To be noted: cited from earlier work; for protection against lesions in the malonate animal model: intrastriatal malonate; for ATP depletion produced by malonate in vivo: rat.
Another series concerns MPTP toxicity. The experiment in a line: MPTP toxicity in mice, earlier work of the inventors. The series is classed as in vivo. From the text:
This metabolite is formed by the activity of monoamine oxidase on MPTP. Inhibitors of monoamine oxidase block the neurotoxicity of MPTP in both mice and primates. The specificity of the neurotoxic effects of MPP^+ for dopaminergic neurons appears to be due to the uptake of MPP^+ by the synaptic dopamine transporter. Blockers of this transporter prevent MPP^+ neurotoxicity. […] It binds to complex I at the retenone binding site. […] In vivo studies have shown that MPTP can deplete striatal ATP concentrations in mice.

For series [9] the following is noted: compared with phosphocreatine; cited from earlier work.
In series [10] the test system is creatine kinase. As to conditions: cited from earlier work.
The conditions of series [11]: intravenous injection, up to 8 grams/day, patients with cardiac diseases; cited from earlier work.
Setting [12] is: pilot, 1% in feed, oral, FIG. 4.

For the compound `NC1=NCCN1CC(=O)O` [cyclocreatine, 1-carboxymethyl-2-iminoimidazolidine], the tolerability entry in series [1] is “well-tolerated”. Moreover, the gross adverse effects entry in [2] was “without gross adverse effects”. Moreover, in the series on creatine kinase [3], the “phosphorylation by creatine kinase” value was “phosphorylated efficiently”. Moreover, in [4] (dose of 1% in the diet, FIG. 2), the “neuroprotection against malonate induced striatal lesions” value was “significant”. The “neuroprotection against malonate induced striatal lesions, dose response” value in [4] (increasing doses in the diet: creatine 0.25-3%, cyclocreatine 0.2-1.0%, FIG. 2) is listed as “dose dependent neuroprotective effects”. Besides, the “protection against striatal malonate lesions (lesion volume)” value in [4] (initial pilot experiment, oral supplementation in feed, FIG. 1) is reported as “protected against striatal malonate lesions”. In addition, the “accumulation in different organs” value in [5] (feeding animals e.g. 1% dietary) is listed as “mM concentrations”. Moreover, in series [5] (rats receiving dietary 1%), the tissue uptake result is “taken up by muscle, heart and brain”. In series [6] (0.5% of the diet, FIG. 5), the “protection against HVA depletion” value is on record as “not seen” and the “neuroprotection against dopamine depletions” value is reported as “significant protection”. For the same compound, in series [6] (dose response study, FIG. 5), the “effect on 3-4-dihydroxyphenyl acetic acid (DOPAC)” value is “neuroprotection effects” and the “effect on homovanillic acid (HVA)” value was “neuroprotection effects”. In addition, the “neuroprotection against dopamine depletions” value in series [6] (1.0% of the diet, FIG. 5) is on record as “significant protection”. Moreover, in series [6] (setting [12]), the “effect against MPTP induced depletions of homovanillic acid” value was “effective”, the “neuroprotection against MPTP induced dopamine depletions” value was “significant neuroprotection”, the “neuroprotective effect compared with creatine” value was “greater than that seen with creatine alone” and the “protection against DOPAC depletions induced by MPTP” value is listed as “significantly protected”. Also, the antiviral activity result in the series on viral infections is reported as “observed”. The growth entry in [7] (in vivo) was “grew more slowly than control chicks”. Moreover, in series [7] (newly hatched chicks, diet containing 1%, in the presence of antibiotics), the mortality result is “without significant mortality”.

In the case of `Nc1nnc(-c2cccc(Cl)c2Cl)c(N)n1` [lamotrigine], in [8], the “protection against lesions in the malonate animal model” value (“protection against lesions” for short) is “attenuates the lesions”.

On to `COC1=C(OC)C(=O)C(C/C=C(\C)CC/C=C(\C)CC/C=C(\C)CC/C=C(\C)CC/C=C(\C)CC/C=C(\C)CC/C=C(\C)CC/C=C(\C)CC/C=C(\C)CCC=C(C)C)=C(C)C1=O` [Q10, coenzyme Q10], for which the “protection against MPTP toxicity” value in the series with MPTP toxicity is recorded as “significantly protect”. In addition, in series [8], the “protection against lesions” value is recorded as “dose dependent protection” and the “ATP depletion produced by malonate in vivo” value is given as “attenuated”.

With `NC(=O)c1cccnc1` [nicotinimide], in series [8], the “protection against lesions” value is recorded as “dose dependent protection” and the “ATP depletion produced by malonate in vivo” value is recorded as “attenuated”.

On to “3-phosphoryl-1-carboxymethyl-2-iminoimidazolidine [cyclocreatine phosphate]”, for which, in series [9], the “stability of the P-N bond” value is on record as “more stable than that of phosphocreatine”.

Regarding `N=C(N)N(CC(=O)O)CC1CO1` (stereo not shown) [epoxycreatine], the “inactivation of creatine kinase” value with creatine kinase [10] was “completely and irreversibly inactivate”.

For isoepoxycreatine, the “inactivation of creatine kinase” value with creatine kinase [10] was “completely and irreversibly inactivate”.

As to `O=C(O)CCC(=O)O` [succinate], the “malonate lesions on co-injection” value in [8] (co-injection with malonate) is recorded as “blocks the lesions”.

Consider “N-phosphoryl creatine [creatine phosphate]”, for which, in [11], the adverse side effects entry is “no adverse side effects”.
